# Results as given in ChEMBL document CHEMBL1201862, “PubChem BioAssay data set” (2004).
# Active and inactive are the calls of the source. For most assays here, no stated cut-off is given here; in the data, actives have a measured EC50 and inactives only a lower limit.
# Experiments:
# [1] = C. albicans growth with fluconazole, confirmation, fluorescence, retest (AID 2467); type: functional, cell-based
# [2] = NIH-3T3 fibroblast cytotoxicity, dose response, cytotoxicity control, cell-based, fluorescence, Alamar Blue, secondary assay (AID 2327); type: functional;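 further: NIH-3T3 mouse fibroblasts cultured with fluconazole at 8 µg/mL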
# [3] = target: T1, Corticotropin-releasing factor receptor 2/Corticotropin-releasing factor-binding protein (Homo sapiens, UniProt P24387+Q13324); experiment: activators of CRF receptor 2 with binding protein – uHTS hits, confirmation (AID 602473); type: functional; settings: read-out: EC50_Mean
# T1 sequence (Q13324 whole entry): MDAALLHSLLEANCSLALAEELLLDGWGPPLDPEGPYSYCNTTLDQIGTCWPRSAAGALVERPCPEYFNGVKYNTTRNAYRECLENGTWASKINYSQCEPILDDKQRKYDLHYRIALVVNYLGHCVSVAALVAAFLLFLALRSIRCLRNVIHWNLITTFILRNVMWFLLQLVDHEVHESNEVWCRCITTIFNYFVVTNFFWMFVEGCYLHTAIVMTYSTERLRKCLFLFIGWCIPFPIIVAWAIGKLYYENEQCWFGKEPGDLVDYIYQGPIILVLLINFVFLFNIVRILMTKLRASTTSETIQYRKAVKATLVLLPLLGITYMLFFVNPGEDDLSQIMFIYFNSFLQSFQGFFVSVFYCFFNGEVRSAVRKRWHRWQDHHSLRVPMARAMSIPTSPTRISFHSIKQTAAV
# T1 sequence (P24387 whole entry): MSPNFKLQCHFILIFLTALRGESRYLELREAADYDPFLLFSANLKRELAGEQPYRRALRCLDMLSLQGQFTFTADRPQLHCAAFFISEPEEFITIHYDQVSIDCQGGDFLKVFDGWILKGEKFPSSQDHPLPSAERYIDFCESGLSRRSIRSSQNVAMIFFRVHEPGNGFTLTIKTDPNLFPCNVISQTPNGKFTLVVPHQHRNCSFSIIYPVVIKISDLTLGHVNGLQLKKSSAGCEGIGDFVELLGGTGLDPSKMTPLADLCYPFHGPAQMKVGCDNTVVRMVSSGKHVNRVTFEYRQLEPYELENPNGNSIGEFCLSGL
# [4] = target: T1, Corticotropin-releasing factor receptor 2/Corticotropin-releasing factor-binding protein; experiment: Dose Response confirmation of uHTS hits for small molecule antagonists of the CRF-binding protein and CRF-R2 receptor complex.; type: functional; settings: read-out: IC50_Mean
# Streptococcus = experiment: Group A Streptococcus viability loss, dose response, counter-screen for streptokinase expression inhibitor project, luminescence, BacTiterGlo (AID 1915); type: functional, organism-based;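 further: potency for reduction of bacterial viability or growth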
# Streptokinase A = target: T2, Streptokinase A (Streptococcus pyogenes serotype M1, UniProt P10520); experiment: S. pyogenes streptokinase expression inhibitors, potency, dose response, plasminogen activation absorbance, OD405 (AID 1914); type: functional, Streptococcus pyogenes M1 GAS;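 further: secreted streptokinase activity via plasminogen activation per viability signal from cell pellet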
# T2 sequence (P10520 whole entry): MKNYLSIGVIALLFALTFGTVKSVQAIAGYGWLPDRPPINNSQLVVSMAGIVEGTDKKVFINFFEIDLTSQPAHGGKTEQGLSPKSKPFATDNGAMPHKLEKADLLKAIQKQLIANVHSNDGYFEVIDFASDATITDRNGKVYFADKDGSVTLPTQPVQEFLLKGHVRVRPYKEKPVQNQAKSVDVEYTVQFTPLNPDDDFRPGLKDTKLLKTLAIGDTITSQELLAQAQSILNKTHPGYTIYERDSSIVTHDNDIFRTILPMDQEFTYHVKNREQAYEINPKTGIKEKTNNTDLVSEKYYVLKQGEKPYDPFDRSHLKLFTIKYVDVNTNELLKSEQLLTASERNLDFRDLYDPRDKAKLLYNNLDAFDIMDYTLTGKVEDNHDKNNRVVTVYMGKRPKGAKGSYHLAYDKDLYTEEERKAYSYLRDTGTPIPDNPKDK
# [5] = cytotoxicity toward NIH3T3 fibroblasts, dose response, counter-screen, cell-based, ATP luminescence, mouse fibroblasts (AID 2010); type: functional;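 further: cells exposed to compound for about 90 hours before reading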
# [6] = system: Streptococcus sp. 'group A'; experiment: growth inhibition of control SK(-) GAS strain, dose response, counter-screen for streptokinase expression inhibitor project, luminescence, kanamycin, BacTiterGlo, confirmation (AID 1900); type: functional, organism-based
# [7] = inhibitors of intracellular T. cruzi replication, confirmation, NIH3T3 host cells, beta-gal luminescence (AID 2044); type: functional, cell-based;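 further: intracellular parasites grown in NIH/3T3 mouse fibroblasts as host cells; luminescent beta-galactosidase reporter signal from transgenic T. cruzi replicating inside host cells; inhibitors lower the luminescence signal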
# [8] = target: T3, RNA-binding protein pos-1 (Caenorhabditis elegans, UniProt G5EF15); experiment: inhibitors of POS-1/mex-3 RNA binding, dose response, biochemical, fluorescence polarization (AID 1964);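 further: purified POS-1 fused to maltose binding protein made in E. coli; potency of compounds blocking POS-1 binding to fluorescent RNA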
# T3 sequence (G5EF15 whole entry): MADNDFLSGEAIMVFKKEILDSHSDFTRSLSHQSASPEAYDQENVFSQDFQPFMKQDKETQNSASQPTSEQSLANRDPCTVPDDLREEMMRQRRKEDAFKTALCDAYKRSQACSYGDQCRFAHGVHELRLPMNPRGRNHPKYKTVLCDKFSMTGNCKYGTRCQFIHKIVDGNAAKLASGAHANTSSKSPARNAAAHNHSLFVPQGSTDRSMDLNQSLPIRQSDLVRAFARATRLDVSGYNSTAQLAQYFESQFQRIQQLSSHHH
# [9] = target: T4, Zinc finger protein mex-5 (Caenorhabditis elegans, UniProt Q9XUB2); experiment: MEX-5/TCR-2 RNA interaction inhibitors, dose response, biochemical, C. elegans, fluorescence polarization (AID 1960)
# T4 sequence (Q9XUB2 whole entry): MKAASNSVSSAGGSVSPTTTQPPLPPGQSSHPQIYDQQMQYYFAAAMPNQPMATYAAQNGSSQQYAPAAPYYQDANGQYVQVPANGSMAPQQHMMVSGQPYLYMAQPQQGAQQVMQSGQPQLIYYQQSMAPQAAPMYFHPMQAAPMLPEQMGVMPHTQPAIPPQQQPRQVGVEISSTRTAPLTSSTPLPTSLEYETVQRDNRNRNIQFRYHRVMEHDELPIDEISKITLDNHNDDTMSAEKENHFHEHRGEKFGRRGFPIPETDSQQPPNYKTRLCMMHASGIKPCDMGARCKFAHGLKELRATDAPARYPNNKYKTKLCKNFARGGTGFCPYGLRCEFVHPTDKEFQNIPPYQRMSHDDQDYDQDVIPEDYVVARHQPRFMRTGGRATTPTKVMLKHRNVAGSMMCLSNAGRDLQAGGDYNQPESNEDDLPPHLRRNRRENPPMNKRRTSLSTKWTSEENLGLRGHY
# H9c2 = experiment: cells; type: functional, cell-based; settings: Rattus norvegicus, H9c2, Myocardium;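 further: confirmatory concentration-response retest of ultra-high-throughput screening hits for modulation of myocardial damage; cell death induced by hydrogen peroxide oxidative stress; compound pretreatment for 60 min then peroxide exposure for 2 h; potency is for protecting the cells against peroxide damage rather than for killing them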
smiles,measurement,setting,value
COC(=O)c1cc(C)sc1NC(=O)c1cccnc1,EC50,[1],> 38 µM (not active)
same,EC50,[2],62.4 µM (active)
CC1C2=C(O)CC(C)(C)CC2=NC2=C1C(=O)CC(C)(C)C2 (configuration not stated),EC50,[3],> 53 µM (inactive)
O=[N+]([O-])c1cccc(/C=N/NC2=NCCCCC2)c1,EC50,[3],> 53 µM (inactive)
same,IC50,[4],> 47.1 µM (inactive)
COc1cc(C(=O)NNC(=S)NC(=O)c2ccc(F)cc2)cc(OC)c1OC,EC50,Streptococcus,15.5 µM (active)
same,EC50,Streptokinase A,> 150 µM (not active)
same,EC50,[5],14.9 µM (active)
same,EC50,[6],3.25 µM (active)
same,EC50,[7],0.791 µM (active)
COc1ccccc1N1CCN(Cc2c(F)cccc2Cl)CC1,EC50,[3],> 53 µM (inactive)
same,IC50,[4],> 47.1 µM (inactive)
O=C(CSc1ccccc1)N(c1ccc(Br)cc1)c1nccs1,EC50,[3],> 53 µM (inactive)
same,IC50,[4],> 47.1 µM (inactive)
COc1ccc(-c2cc3ccc(OCC(N)=O)cc3oc2=O)cc1OC,EC50,[8],> 300 µM (not active)
same,EC50,[9],> 300 µM (not active)
COc1cc(OC)cc(C(=O)Nc2ccc(S(=O)(=O)Nc3cnc4ccccc4n3)cc2)c1,EC50,[3],> 53 µM (inactive)
same,IC50,[4],> 47.1 µM (inactive)
CC1CCCC(C)N1C(=O)CSc1nc(O)c2ccccc2n1 (configuration not stated),IC50,H9c2,> 79 µM (inactive)
CCn1c(=O)cc(OCC(=O)Nc2ccccc2C#N)c2ccccc21,IC50,H9c2,18.1 µM (active)
CCOC(=O)C1=c2/c(=C/c3ccncc3)c(N)c(C(=O)OC)n2C(=O)C(c2ccncc2)S1 (configuration not stated),IC50,H9c2,> 79 µM (inactive)
N#CCCN(C(=O)COC(=O)CCc1nc(O)c2ccccc2n1)c1ccccc1F,IC50,H9c2,13 µM (active)
O=S(=O)(/N=C(\c1ccc(F)cc1)N1CCOCC1)c1ccccc1,EC50,[3],> 53 µM (inactive)
CC(C(=O)c1ccccc1)[n+]1cccc(Br)c1 (configuration not stated),EC50,[1],> 38 µM (not active)
same,EC50,[2],> 150 µM (inactive)
O=c1c2ccccc2c(-c2ccccc2)nn1Cc1c(Cl)cccc1Cl,EC50,Streptococcus,> 150 µM (not active)
same,EC50,Streptokinase A,17 µM (active)
same,EC50,[6],7.76 µM (active)
COc1ccc(OC)c(N(CC(=O)Nc2cccnc2)S(=O)(=O)c2ccc(OC)c(OC)c2)c1,IC50,H9c2,12 µM (active)
CCn1c(=O)n(CC(=O)N2CCN(c3ccccc3F)CC2)c(=O)c2ccccc21,EC50,[1],> 38 µM (not active)
same,EC50,[2],> 160 µM (inactive)
N#Cc1ccccc1S(=O)(=O)N1CCN(c2nc(-c3cccnc3)nc3ccccc23)CC1,IC50,H9c2,27.7 µM (active)
C/C(=N/Nc1nc(-c2ccccc2F)nc2ccccc12)c1ccccc1O,EC50,Streptococcus,> 150 µM (not active)
same,EC50,Streptokinase A,> 150 µM (not active)
same,EC50,[6],10.2 µM (active)
N#Cc1cnn2cc(-c3ncc(C(F)(F)F)cc3Cl)cnc12,IC50,H9c2,> 79 µM (inactive)
CNC(=O)c1c(NC(=O)c2ccc(S(=O)(=O)N3CCCCC3C)cc2)sc2c1CCN(C)C2 (configuration not stated),EC50,[8],> 300 µM (not active)
same,EC50,[9],> 300 µM (not active)
O=C(Nc1ccc(N2CCCCCC2)cc1)c1ccccc1Cl,EC50,[3],> 53 µM (inactive)
same,IC50,[4],> 47.1 µM (inactive)
O=C(O)c1nn(CCOc2ccc(Br)cc2)c(=O)c2ccccc12,IC50,H9c2,> 79 µM (inactive)
Cn1c(N)c(C(=O)COC(=O)/C=C/c2ccc(OC(F)F)cc2)c(=O)n(C)c1=O,EC50,Streptococcus,13.4 µM (active)
same,EC50,Streptokinase A,> 150 µM (not active)
same,EC50,[6],3.34 µM (active)
Cc1nc(SCC(=O)NCc2ccc(F)cc2)c2c(=O)n(C)c(=O)n(C)c2n1,IC50,H9c2,> 79 µM (inactive)
CC(C)COc1nc2ccccc2c(=O)n1OCC(=O)O,IC50,H9c2,> 79 µM (inactive)
COc1cc(/C=N/NC(=O)c2ccccc2)ccc1OS(=O)(=O)c1ccccc1,IC50,H9c2,> 79 µM (inactive)
Cc1cc(N)n(-c2nc(-c3cccnc3)nc3ccccc23)n1,IC50,H9c2,11.6 µM (active)
CCc1ccc(/C=N/n2c(S)nnc2C2CCCCC2)cc1,EC50,Streptococcus,15.1 µM (active)
same,EC50,Streptokinase A,> 150 µM (not active)
same,EC50,[6],11.1 µM (active)
COC(=O)c1ccc(N2CCN(C)CC2)c(NC(=O)COc2ccc(C)cc2)c1,EC50,Streptococcus,> 150 µM (not active)
same,EC50,Streptokinase A,> 150 µM (not active)
same,EC50,[6],> 150 µM (not active)
CN1/C(=C/C=C(C#N)C#N)C(C)(C)c2ccccc21,EC50,[8],248 µM (active)
same,EC50,[9],> 300 µM (inconclusive)
O=C(NCC1CCCO1)C(c1ccc(F)cc1)N(Cc1ccc(F)cc1)C(=O)Cn1nnc(-c2cccs2)n1 (configuration not stated),EC50,[1],> 38 µM (not active)
same,EC50,[2],> 160 µM (inactive)
CCOC(=O)c1cc(C(=O)OCC)cc(-n2c(C)cc(C(=O)CN3CCOCC3)c2C)c1,EC50,[8],> 300 µM (not active)
same,EC50,[9],> 300 µM (not active)
CCOc1ccc(/C=C(\C#N)C(=O)NC2CC2)c(OCC)c1,EC50,[3],> 53 µM (inactive)
same,IC50,[4],> 47.1 µM (inactive)
COc1ccc(C(=O)NNC(=O)CCc2nc(O)c3ccccc3n2)cc1,IC50,H9c2,26 µM (active)
N#CC1=C(N)OC2=C(C(=O)CCC2)C1c1ccccc1 (configuration not stated),EC50,[8],> 300 µM (not active)
same,EC50,[9],> 300 µM (not active)
CC(C)NC(=O)CN1C(=O)CSc2ccc(S(=O)(=O)N3CCCC3)cc21,EC50,[3],> 53 µM (inactive)
same,IC50,[4],> 47.1 µM (inactive)
O=S(=O)(c1cccc(-c2csc(-c3cccnc3)n2)c1)N1CCOCC1,EC50,[8],> 300 µM (not active)
same,EC50,[9],> 300 µM (not active)
COc1cc(NC(=O)CSc2nc3ncnc(N)c3[nH]2)c(C(=O)O)cc1OC,EC50,[8],29.2 µM (active)
same,EC50,[9],30.3 µM (active)
COc1ccc(N2C(=O)CC(c3ccc([N+](=O)[O-])cc3)C2=O)cc1 (configuration not stated),EC50,[3],> 53 µM (inactive)
same,IC50,[4],> 47.1 µM (inactive)
N#CCC(N)=C(C#N)C#N,EC50,[8],54.9 µM (active)
same,EC50,[9],169 µM (active)
Oc1nc(Nc2ccc(F)cc2)sc1/C=C1\C=Nc2ccccc21,EC50,Streptococcus,18.4 µM (active)
same,EC50,Streptokinase A,> 150 µM (not active)
same,EC50,[6],7.02 µM (active)
Cc1ccc(N2C(=O)C3CC(c4ccccc4)=C4C5C=CC(C6C(=O)N(c7ccc(C)cc7)C(=O)C56)C4C3C2=O)cc1 (configuration not stated),EC50,Streptococcus,30.9 µM (active)
same,EC50,Streptokinase A,> 150 µM (not active)
same,EC50,[6],1.41 µM (active)
Cc1cc2ccccc2c(O)n1,IC50,H9c2,23.5 µM (active)
